The term pIC50 denotes the negative decadic logarithm of the IC50, by convention in mol/L.

Results on 34 molecules are retold here after patent US11033547B2, “Carboxamide-pyrimidine derivatives as SHP2 antagonists” (Merck Patent GmbH, priority 2019, dated 2021).

Molecules are shown by their SMILES. pIC50: −log10 of the molar value. Bounds are passed on as bounds.

Sequence of Full length SHP2 protein (Recombinant Human SHP-2) (Q06124 2-593 limits assumed): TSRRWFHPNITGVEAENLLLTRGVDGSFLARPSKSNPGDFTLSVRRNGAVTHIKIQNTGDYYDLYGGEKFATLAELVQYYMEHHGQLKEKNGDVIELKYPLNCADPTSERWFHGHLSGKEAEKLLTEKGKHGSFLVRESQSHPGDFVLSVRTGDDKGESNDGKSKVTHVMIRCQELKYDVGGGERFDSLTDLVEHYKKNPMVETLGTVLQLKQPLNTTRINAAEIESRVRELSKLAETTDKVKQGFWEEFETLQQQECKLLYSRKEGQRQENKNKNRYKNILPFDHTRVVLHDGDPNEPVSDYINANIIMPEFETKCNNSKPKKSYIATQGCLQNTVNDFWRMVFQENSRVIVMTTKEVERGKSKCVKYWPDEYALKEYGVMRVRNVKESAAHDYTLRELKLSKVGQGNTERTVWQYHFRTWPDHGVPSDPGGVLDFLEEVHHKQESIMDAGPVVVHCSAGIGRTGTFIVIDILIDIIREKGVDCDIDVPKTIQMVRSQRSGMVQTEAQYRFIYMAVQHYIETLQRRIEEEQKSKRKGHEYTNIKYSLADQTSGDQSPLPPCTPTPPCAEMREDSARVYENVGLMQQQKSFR

The target of this test is Full length SHP2 protein (Recombinant Human SHP-2) (Homo sapiens, UniProt Q06124). The test can be described thus: SHP2 biochemical assay (DiFMUP substrate, activating peptide IRSI_2pY). Particulars: DiFMUP substrate, activating peptide IRSI_2pY, 60 min at RT; read-out: SHP-2 Biochemical assay IC50. Here is the method:
The inhibition of SHP2 by compounds of the invention was monitored using the surrogate substrate DiFMUP after protein activation by a peptide bearing two appropriately spaced phosphotyrosine. […] The generation of the DiFMU product by activated SHP2 was monitored through Fluorescence measurement with a PerkinElmer Envision reader.
The inhibitor dose response curves were analyzed with Genedata Screener.
For the molecule `NC(=O)c1nc(N[C@@H]2CCNC[C@@H]2F)nc(N)c1-c1cccc(Cl)c1Cl` (atropisomer, axis not shown; (M)) [Compound 64, (5M)-6-amino-5-(2,3-dichlorophenyl)-2-{[(3S,4R)-3-fluoropiperidin-4-yl]amino}-pyrimidine-4-carboxamide], the pIC50 was 5.00.
For `CC1(N)CCN(c2nc(Cl)c(-c3cccc(Cl)c3Cl)c(C(N)=O)n2)CC1` (atropisomer, axis not shown; (M)) [Compound 78, (4M)-2-(4-amino-4-methylpiperidin-1-yl)-6-chloro-5-(2,3-dichlorophenyl)-pyrimidine-4-carboxamide], the pIC50 was 5.85.
Regarding `Cc1nc(N[C@H]2CCC[C@@H](N)C2)nc(C(N)=O)c1-c1cccc(Cl)c1Cl` (atropisomer, axis not shown; (M)) [Compound 87, (4M)-2-{[(1S,3R)-3-aminocyclohexyl]amino}-5-(2,3-dichlorophenyl)-6-methylpyrimidine-4-carboxamide], the pIC50 is 5.92.
Regarding `NC[C@@]12CCC[C@@H]1CN(c1nc(N)c(-c3cccc(Cl)c3Cl)c(C(N)=O)n1)C2` (atropisomer, axis not shown; (M)) [Compound 99, (5M)-2-[(3aR,6aS)-3a-(aminomethyl)octahydrocyclopenta[c]pyrrol-2-yl]-6-amino-5-(2,3-dichlorophenyl)pyrimidine-4-carboxamide], the negative-log IC50 (pIC50) is 5.43.
Under `NC(=O)c1nc(N2CCC(N)(C(F)F)CC2)nc(N)c1-c1cccc(Cl)c1Cl` (atropisomer, axis not shown; (M)) [Compound 107, (5M)-6-amino-2-[4-amino-4-(difluoromethyl)piperidin-1-yl]-5-(2,3-dichlorophenyl)-pyrimidine-4-carboxamide] stands 5.49.
Consider `C[C@]1(N)CCCN(c2nc(N)c(-c3cccc(Cl)c3Cl)c(C(N)=O)n2)CC1` (atropisomer, axis not shown; (M)) [Compound 110, (5M)-6-amino-2-[(4S)-4-amino-4-methylazepan-1-yl]-5-(2,3-dichlorophenyl)-pyrimidine-4-carboxamide], for which the pIC50 is 5.36.
Under `COc1c(F)ccc(-c2c(C)nc(N3CCC(C)(N)CC3)nc2C(N)=O)c1Cl` (atropisomer, axis not shown; (M)) [Compound 115, (4M)-2-(4-amino-4-methylpiperidin-1-yl)-5-(2-chloro-4-fluoro-3-methoxyphenyl)-6-methylpyrimidine-4-carboxamide] stands 6.24.
As to `Cc1nc(N2CCC(C)(N)CC2)nc(C(N)=O)c1-c1cccc(Cl)c1Cl` (atropisomer, axis not shown; (P)) [Compound 31, (4P)-2-(4-amino-4-methylpiperidin-1-yl)-5-(2,3-dichlorophenyl)-6-methylpyrimidine-4-carboxamide], the negative logarithm of the IC50 (pIC50) is 5.10.
Under `Cc1nc(N2CCOC[C@H]2CN)nc(C(N)=O)c1-c1cccc(Cl)c1Cl` (atropisomer, axis not shown; (P)) [Compound 47, (4P)-2-[(3R)-3-(aminomethyl)morpholin-4-yl]-5-(2,3-dichlorophenyl)-6-methylpyrimidine-4-carboxamide] stands less than 5.00; under `Cc1nc(N2CCOC[C@@H]2CN)nc(C(N)=O)c1-c1cccc(Cl)c1Cl` (atropisomer, axis not shown; (P)) [Compound 48, (4P)-2-[(3S)-3-(aminomethyl)morpholin-4-yl]-5-(2,3-dichlorophenyl)-6-methylpyrimidine-4-carboxamide], less than 5.00.
Under `Cc1nc(N[C@@H]2CCC[C@H](N)C2)nc(C(N)=O)c1-c1cccc(Cl)c1Cl` (atropisomer, axis not shown; (P)) [Compound 89, (4P)-2-{[(1R,3S)-3-aminocyclohexyl]amino}-5-(2,3-dichlorophenyl)-6-methylpyrimidine-4-carboxamide] stands 4.89.
Under `Cc1nc(N[C@H]2CCC[C@@H](N)C2)nc(C(N)=O)c1-c1cccc(Cl)c1Cl` (atropisomer, axis not shown; (P)) [Compound 90, (4P)-2-{[(1S,3R)-3-aminocyclohexyl]amino}-5-(2,3-dichlorophenyl)-6-methylpyrimidine-4-carboxamide] stands less than 5.00; under `NC(=O)c1nc(N2CCC(N)(C(F)F)CC2)nc(N)c1-c1cccc(Cl)c1Cl` (atropisomer, axis not shown; (P)) [Compound 106, (5P)-6-amino-2-[4-amino-4-(difluoromethyl)piperidin-1-yl]-5-(2,3-dichlorophenyl)-pyrimidine-4-carboxamide], 4.82; under `C[C@]1(N)CCCN(c2nc(N)c(-c3cccc(Cl)c3Cl)c(C(N)=O)n2)CC1` (atropisomer, axis not shown; (P)) [Compound 108, (5P)-6-amino-2-[(4S)-4-amino-4-methylazepan-1-yl]-5-(2,3-dichlorophenyl)-pyrimidine-4-carboxamide], 5.89.
On to `COc1c(F)ccc(-c2c(C)nc(N3CCC(C)(N)CC3)nc2C(N)=O)c1Cl` (atropisomer, axis not shown; (P)) [Compound 116, (4P)-2-(4-amino-4-methylpiperidin-1-yl)-5-(2-chloro-4-fluoro-3-methoxyphenyl)-6-methylpyrimidine-4-carboxamide], for which the pIC50 is less than 5.00.
Under `NC(=O)c1nc(N2C[C@H]3CCCCC[C@@H](C2)C3N)nc(N)c1-c1cccc(Cl)c1Cl` (single isomer, unassigned) [Compound 14] stands 5.06; under `Cc1nc(N2CCC3(CC2)CO[C@@H](C)[C@H]3N)nc(C(N)=O)c1-c1cccc(Cl)c1Cl` (single isomer, unassigned) [Compound 94], 5.59.
Under `NC[C@@]12CCCC[C@@H]1CN(c1nc(N)c(-c3cccc(Cl)c3Cl)c(C(N)=O)n1)C2` (single isomer, unassigned) [Compound 102] stands 4.77; under `NC[C@]12CCCC[C@H]1CN(c1nc(N)c(-c3cccc(Cl)c3Cl)c(C(N)=O)n1)C2` (single isomer, unassigned) [Compound 103], 5.25.
Under `NC[C@]12CCC[C@H]1CN(c1nc(N)c(-c3cccc(Cl)c3Cl)c(C(N)=O)n1)C2` (single isomer, unassigned) [Compound 105] stands 5.00.
As for `Cc1nc(N2CCC3(CCC[C@H]3N)CC2)nc(C(N)=O)c1-c1cccc(Cl)c1Cl` (single isomer, unassigned) [Compound 113], the negative logarithm of the IC50 (pIC50) is 6.18.
Under `NC(=O)c1nc(N2CCC3(CC2)Cc2ccccc2[C@H]3N)nc(N)c1-c1cccc(Cl)c1Cl` (single isomer, unassigned) [Compound 118] stands 7.39; under `NC(=O)c1nc(N2CCC3(CC2)Oc2ncccc2C3N)nc(N)c1-c1cccc(Cl)c1Cl` (single isomer, unassigned) [Compound 128], 8.22; under `NC(=O)c1nc(N2CCC3(CC2)Oc2ncccc2C3N)nc(N)c1-c1cccc(Cl)c1Cl` (single isomer, unassigned) [Compound 129], 6.48.
With `NC(=O)c1nc(N2CCC3(CC2)Oc2ncccc2[C@@H]3N)nc(N)c1-c1cccc(Cl)c1Cl` (single isomer, unassigned) [Compound 130], the pIC50 is 7.11.
For `NC(=O)c1nc(N2CCC3(CC2)Oc2ncccc2[C@@H]3N)nc(N)c1-c1cccc(Cl)c1Cl` (single isomer, unassigned) [Compound 131], the negative logarithm of the IC50 (pIC50) was 5.15.
Under `Cc1nc(N2CCC3(CCC[C@H]3N)C2)nc(C(N)=O)c1-c1cccc(Cl)c1Cl` (stereo in doubt) [Compound 35, 2-((R)-6-Amino-2-aza-spiro[4.4]non-2-yl)-5-(2,3-dichloro-phenyl)-6-methyl-pyrimidine-4-carboxylic acid amide] stands 5.96; under `Cc1nc(N2CCC3(CCC[C@@H]3N)C2)nc(C(N)=O)c1-c1cccc(Cl)c1Cl` (stereo in doubt) [Compound 37, 2-((S)-6-Amino-2-aza-spiro[4.4]non-2-yl)-5-(2,3-dichloro-phenyl)-6-methyl-pyrimidine-4-carboxylic acid amide], 5.96.
Under `CC1(N)CCN(c2nc(N)c(-c3cccc(F)c3)c(C(N)=O)n2)CC1` [Compound 4, 6-Amino-2-(4-amino-4-methyl-piperidin-1-yl)-5-(3-fluoro-phenyl)pyrimidine-4-carboxylic Acid Amide] stands 5.43; under `NC(=O)c1nc(N2CC3CCCC(C2)C3N)nc(N)c1-c1cccc(Cl)c1Cl` (stereo not shown) [Compound 6, 6-amino-2-{9-amino-3-azabicyclo[3.3.1]nonan-3-yl}-5-(2,3-dichlorophenyl)pyrimidine-4-carboxamide], 5.57.
For `CC(C)C1N(c2nc(N)c(-c3cccc(Cl)c3Cl)c(C(N)=O)n2)CC12CC(N)C(O)C2` (stereo not shown) [Compound 10, 6-amino-2-[6-amino-7-hydroxy-1-(propan-2-yl)-2-azaspiro[3.4]octan-2-yl]-5-(2,3-dichlorophenyl)pyrimidine-4-carboxamide], the negative-log IC50 (pIC50) is 5.02.
With `NCC1CC2CCC(C1)N2c1nc(N)c(-c2cccc(Cl)c2Cl)c(C(N)=O)n1` (stereo not shown) [Compound 12, 6-amino-2-[3-(aminomethyl)-8-azabicyclo[3.2.1]octan-8-yl]-5-(2,3-dichlorophenyl)pyrimidine-4-carboxamide], the pIC50 was 5.80.
Take `NC(=O)c1nc(N2C[C@H]3CCCCC[C@@H](C2)[C@@H]3N)nc(N)c1-c1cccc(Cl)c1Cl` [Compound 13, 6-amino-5-(2,3-dichlorophenyl)-2-[(1R,7S,11s)-11-amino-9-azabicyclo[5.3.1]undecan-9-yl]pyrimidine-4-carboxamide]: the pIC50 was less than 5.00.
With `CC1(N)CCN(c2nc(N)c(-c3cccc(Cl)c3Cl)c(C(=O)NCCO)n2)CC1` [Compound 17, 6-Amino-2-(4-amino-4-methyl-piperidin-1-yl)-5-(2,3-dichlorophenyl)-pyrimidine-4-carboxylic acid (2-hydroxy-ethyl)-amide], the pIC50 is 4.92.
